Measured values from ChEMBL document CHEMBL1201862, “PubChem BioAssay data set” (2004).
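Interpolation was linear, between the two tested concentrations surrounding the appropriate level; five concentrations were tested over 48 hours in 96-well plates. At the GI50, growth is halved.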 Calls of active or inactive are those of the source. No stated cut-off is given here; in the data, active = GI50 up to about 1.1 µM and inactive = higher.

Key:
Assay in all cases: growth of human tumour cells (NCI), 48 h
[1] = system: UACC-62
[2] = system: HL-60
[3] = system: SF-539
[4] = system: SNB-78
[5] = system: PC-3
[6] = system: SR
[7] = system: MOLT-4
[8] = system: K562
[9] = system: UO-31
[10] = system: BT-549
[11] = system: DLD-1
[12] = system: EKVX
[13] = system: SNB-75
[14] = system: NCI-H23
[15] = system: HOP-18
[16] = system: SK-OV-3
[17] = system: SF-268
[18] = system: XF498
[19] = system: KM12
[20] = system: A549
[21] = system: Malme-3M
[22] = system: MCF7
[23] = system: Hs-578T
[24] = system: DU-145
[25] = system: HOP-62
[26] = system: SW-620
[27] = system: IGROV-1
[28] = system: U-251
[29] = system: CCRF-CEM
[30] = system: A498
[31] = system: 786-0
[32] = system: HCT-15
[33] = system: SN12C
[34] = system: T47D
[35] = system: DMS-273
[36] = system: KM-20L2
[37] = system: HCC 2998
[38] = system: SF-295
[39] = system: CAKI-1
[40] = system: SK-MEL-2
[41] = system: DMS-114
[42] = system: SK-MEL-28
[43] = system: M19-MEL
[44] = system: RXF 393
[45] = system: OVCAR-3
[46] = system: MDA-MB-231
[47] = system: TK-10
[48] = system: RPMI-8226
[49] = system: LXFL 529
[50] = system: HOP-92
[51] = system: OVCAR-4
[52] = system: NCI-H226
[53] = system: OVCAR-5
[54] = system: NCI-H460
[55] = system: M14
[56] = system: ACHN
[57] = system: UACC-257
[58] = system: LOX IMVI
[59] = system: COLO 205
[60] = system: MDA-MB-435
[61] = system: NCI-H522
[62] = system: NCI/ADR-RES
[63] = system: SNB-19
[64] = system: SK-MEL-5
[65] = system: HT-29
[66] = system: OVCAR-8
[67] = system: HCT-116

CCC1(OC(=O)CN)C(=O)OCc2c1cc1n(c2=O)Cc2cc3ccccc3nc2-1 (stereo not given)
GI50 [1]: 10 nM (active)
GI50 [2]: 7.64 nM (active)
GI50 [3]: 10 nM (active)
GI50 [4]: 738 nM (active)
GI50 [5]: 66.1 nM (active)
GI50 [6]: 10 nM (active)
GI50 [7]: 10 nM (active)
GI50 [8]: 33.4 nM (active)
GI50 [9]: 11.4 nM (active)
GI50 [10]: 59.3 nM (active)
GI50 [11]: 250 nM (active)
GI50 [12]: 598 nM (active)
GI50 [13]: 21.3 nM (active)
GI50 [14]: 10 nM (active)
GI50 [15]: 97.5 nM (active)
GI50 [16]: 29.7 nM (active)
GI50 [17]: 10 nM (active)
GI50 [18]: 147 nM (active)
GI50 [19]: 128 nM (active)
GI50 [20]: 11 nM (active)
GI50 [21]: 151 nM (active)
GI50 [22]: 10 nM (active)
GI50 [23]: 6140 nM (inactive)
GI50 [24]: 10 nM (active)
GI50 [25]: 10 nM (active)
GI50 [26]: 67 nM (active)
GI50 [27]: 41.1 nM (active)
GI50 [28]: 10 nM (active)
GI50 [29]: 10 nM (active)
GI50 [30]: 51.2 nM (active)
GI50 [31]: 10 nM (active)
GI50 [32]: 149 nM
GI50 [33]: 11.3 nM (active)
GI50 [34]: 12 nM (active)
GI50 [35]: 4.71 nM (active)
GI50 [36]: 124 nM (active)
GI50 [37]: 66.4 nM (active)
GI50 [38]: 10 nM (active)
GI50 [39]: 10 nM (active)
GI50 [40]: 79.4 nM (active)
GI50 [41]: 9.89 nM (active)
GI50 [42]: 101 nM (active)
GI50 [43]: 123 nM (active)
GI50 [44]: 37.8 nM (active)
GI50 [45]: 94.4 nM (active)
GI50 [46]: 380 nM (active)
GI50 [47]: 516 nM (active)
GI50 [48]: < 13.2 nM (active)
GI50 [49]: 546 nM (active)
GI50 [50]: 547 nM (active)
GI50 [51]: 120 nM (active)
GI50 [52]: 13.4 nM (active)
GI50 [53]: 45.7 nM (active)
GI50 [54]: 10 nM (active)
GI50 [55]: 10 nM (active)
GI50 [56]: 10 nM (active)
GI50 [57]: 35.3 nM (active)
GI50 [58]: < 10.2 nM (active)
GI50 [59]: 49.1 nM (active)
GI50 [60]: 56.4 nM (active)
GI50 [61]: 18.8 nM (active)
GI50 [62]: 11.8 nM (active)
GI50 [63]: 10 nM (active)

CC1NOC(=O)C1/N=N/c1cccc(Cl)c1 (stereo not given)
GI50 [1]: 34600 nM (inactive)
GI50 [2]: 18400 nM (inactive)
GI50 [3]: 34300 nM (inactive)
GI50 [4]: 36600 nM (inactive)
GI50 [6]: 21200 nM (inactive)
GI50 [7]: 24500 nM (inactive)
GI50 [8]: 25600 nM (inactive)
GI50 [9]: 35600 nM (inactive)
GI50 [64]: 19900 nM (inactive)
GI50 [11]: 34600 nM (inactive)
GI50 [12]: 37500 nM (inactive)
GI50 [13]: 36100 nM (inactive)
GI50 [14]: 99500 nM (inactive)
GI50 [15]: 26100 nM (inactive)
GI50 [16]: 28800 nM (inactive)
GI50 [17]: 23100 nM (inactive)
GI50 [18]: 22300 nM (inactive)
GI50 [19]: 40700 nM (inactive)
GI50 [20]: 33200 nM (inactive)
GI50 [21]: 29700 nM (inactive)
GI50 [25]: 51300 nM (inactive)
GI50 [26]: 10000 nM (inactive)
GI50 [27]: 40800 nM (inactive)
GI50 [28]: 25200 nM (inactive)
GI50 [29]: 21400 nM (inactive)
GI50 [30]: 17300 nM (inactive)
GI50 [31]: 30200 nM (inactive)
GI50 [32]: 17700 nM
GI50 [33]: 21700 nM (inactive)
GI50 [65]: 27400 nM (inactive)
GI50 [35]: 48100 nM (inactive)
GI50 [36]: 35600 nM (inactive)
GI50 [37]: > 100000 nM (inactive)
GI50 [38]: 34000 nM (inactive)
GI50 [39]: 38600 nM (inactive)
GI50 [40]: 16500 nM (inactive)
GI50 [41]: 22400 nM (inactive)
GI50 [42]: 43900 nM (inactive)
GI50 [43]: 30300 nM (inactive)
GI50 [44]: 22800 nM (inactive)
GI50 [45]: 22500 nM (inactive)
GI50 [47]: 42800 nM (inactive)
GI50 [66]: 44800 nM (inactive)
GI50 [49]: 27900 nM (inactive)
GI50 [50]: 26400 nM (inactive)
GI50 [51]: 32900 nM (inactive)
GI50 [52]: 32300 nM (inactive)
GI50 [53]: 47500 nM (inactive)
GI50 [54]: 31200 nM (inactive)
GI50 [55]: 62200 nM (inactive)
GI50 [56]: 40900 nM (inactive)
GI50 [57]: 29000 nM (inactive)
GI50 [58]: 28800 nM (inactive)
GI50 [59]: 20500 nM (inactive)
GI50 [67]: 31700 nM (inactive)
GI50 [61]: 23500 nM (inactive)
GI50 [63]: 37700 nM (inactive)
